# Laboratory results as given in patent US8093035B2, “Pseudomonas sp. strain and method of producing chitinase, chitosanase and nattokinase using the same” (Tamkang University, priority 2008, dated 2012).
# “And” between values parts separate entries of the source, which are not always exact repeats. Identical values can stand only once. “Also recorded” adds a separate entry of the source.
# Test system: TKU015 nattokinase
# Test: Influence of organic solvents on TKU015 nattokinase activity at different temperature (ten days)
# Type: biochemical, Pseudomonas sp. TKU015
# Details: mixed with solvent, placed ten days at 4 ° C.; 100% represents 15 FU/mL
# Description: (§1) With respect to thermal stability, TKU015 nattokinase is mixed with different solvents and then respectively placed for ten days at 25° C. and 4° C.
row,Compound,Relative activity(%) TKU015 nattokinase [%]
1,CC(C)CCO [isoamylalcohol],88
2,CC(C)O [isopropylalcohol],115
3,butanol,125
4,CO [methanol],116
5,CC#N [acetonitrile],90
6,CCOCC [ethyl ether],98
7,xylene,126
8,CC(C)=O [acetone],128
9,C[S+](C)[O-] [DMSO],90
10,Cc1ccccc1 [toluene],120
11,CCOC(C)=O [ethyl acetate],118
12,CCO [ethanol],114
13,"CN(C)C=O [DMF, N,N-dimethylformamide]",120

# Same assay, conditions: mixed with solvent, placed ten days at 25 ° C.; 100% represents 15 FU/mL
row,Compound,Relative activity(%) TKU015 nattokinase [%]
1,CC(C)CCO [isoamylalcohol],100
2,CC(C)O [isopropylalcohol],120
3,butanol,85
4,CO [methanol],90
5,CC#N [acetonitrile],80
6,CCOCC [ethyl ether],70
7,xylene,96
8,CC(C)=O [acetone],108
9,C[S+](C)[O-] [DMSO],94
10,Cc1ccccc1 [toluene],100
11,CCOC(C)=O [ethyl acetate],92
12,CCO [ethanol],88
13,"CN(C)C=O [DMF, N,N-dimethylformamide]",98

# Test system: chitinase
# Test: Influence of metal ions and organic solvents on TKU015 chitinase activity
# Type: biochemical, Pseudomonas sp. TKU015
# Details: not given
# Description: (§2) In order to produce chitinase and chitosanase, generally, TKU015 is cultured in a liquid shaking culture medium (pH 8) including 0.5% by weight of SSP, 0.1% by weight of K2HPO4 and 0.05% by weight of MgSO4.7H2O for 3 days at 30° C. The obtained fermented supernatant is purified with ammonia sulfate precipitation, DEAE-Sepharose chromatography, Phenyl-Sepharose chromatography, and Sephacryl S-100 chromatography in sequence, and a chitinase and a chitosanase is obtained.
# (§3) Pseudomonas sp. TKU015 is cultured in a liquid medium (100 mL/250 mL), which employ shrimp shell powder as carbon/nitrogen source, for 2-3 days at 30° C., and chitinase, chitosanase and nattokinase activity are tested in the medium.
row,Compound,Effect of metal ions on chitinase activity
1,[Mn+2] [Mn^2+],inhibited; also recorded: prohibited
2,[Fe+2] [Fe^2+],inhibited; also recorded: prohibited

# Same assay, conditions: after placed for 10 days at 25° C.
row,Compound,Organic solvent resistance of chitinase
1,xylene,don't affect activity
2,Cc1ccccc1 [toluene],don't affect activity
3,"CN(C)C=O [DMF, N,N-dimethylformamide]",don't affect activity

# Same assay, conditions: after placed for 10 days; temperature not given
row,Compound,Organic solvent resistance of chitinase
1,CC#N [acetonitrile],can affect activity
2,CCOCC [ethyl ether],can affect activity
3,CC(C)=O [acetone],can affect activity

# Test system: san-ai protease
# Test: not given
# Details: in the presence of solvent; cited from earlier work
row,Compound,Effect of solvent on san-ai protease activity
1,"CN(C)C=O [DMF, N,N-dimethylformamide]",doesn't change

# Molecular target: Pseudomonas aeruginosa PseA protease (Pseudomonas aeruginosa, UniProt P14756)
# Test: not given
# Details: concentration 0.1% or 0.5%; cited from earlier work
# Pseudomonas aeruginosa PseA protease, sequence (P14756 198-498): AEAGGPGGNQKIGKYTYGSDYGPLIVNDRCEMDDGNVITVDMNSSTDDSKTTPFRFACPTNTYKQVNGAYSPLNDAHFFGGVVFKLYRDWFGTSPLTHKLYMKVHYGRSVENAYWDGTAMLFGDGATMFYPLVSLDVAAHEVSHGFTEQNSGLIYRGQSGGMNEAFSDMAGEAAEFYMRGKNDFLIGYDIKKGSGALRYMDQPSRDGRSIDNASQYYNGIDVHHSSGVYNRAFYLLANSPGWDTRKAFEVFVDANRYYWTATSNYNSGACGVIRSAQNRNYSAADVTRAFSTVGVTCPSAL
row,Compound,Effect on PseA protease activity
1,Triton X-100,doesn't change

# Same assay, conditions: concentration 0.1%; cited from earlier work
row,Compound,Remaining activity of PseA protease [%]
1,CCCCCCCCCCCCOS(=O)(=O)[O-].[Na+] [SDS],61

# Same assay, conditions: in the presence of solvent; cited from earlier work
row,Compound,Effect of solvent on PseA protease activity
1,Cc1ccccc1 [toluene],doesn't change
2,"CN(C)C=O [DMF, N,N-dimethylformamide]",doesn't change

# Molecular target: PST-01 protease (Pseudomonas aeruginosa, UniProt P14756)
# Test: not given
# Details: in the presence of solvent; cited from earlier work
# PST-01 protease, sequence (P14756 198-498): as above
Compound,Activity of PST-01 protease [%],Effect of solvent on PST-01 protease activity
CC(C)=O [acetone],200,doesn't change
Cc1ccccc1 [toluene],–,doesn't change
"CN(C)C=O [DMF, N,N-dimethylformamide]",–,doesn't change

# Test system: chitosanase
# Test: not given
# Type: biochemical, Pseudomonas sp. TKU015
# Details: not given
# Description: as §2, §3
Compound,Effect of metal ions and PMSF on chitosanase activity,Effect of organic solvent on chitosanase activity
[Cu+2] [Cu^2+],inhibited,–
"O=S(=O)(F)Cc1ccccc1 [PMSF, phenylmethanesulfonyl fluoride]",inhibited,–
CC#N [acetonitrile],–,can affect activity
[Mn+2] [Mn^2+],inhibited,–

# Same assay, conditions: after placed for 10 days at 4° C.
row,Compound,Organic solvent resistance of chitosanase
1,CCOCC [ethyl ether],can affect activity
2,CC(C)=O [acetone],can affect activity

# Same assay, conditions: after placed for 10 days at 25° C.
row,Compound,Organic solvent resistance of chitosanase
1,xylene,don't affect activity
2,Cc1ccccc1 [toluene],don't affect activity
3,"CN(C)C=O [DMF, N,N-dimethylformamide]",don't affect activity

# Test system: TKU015 nattokinase
# Test: not given
# Type: biochemical, Pseudomonas sp. TKU015
# Details: not given
row,Compound,Relative activity (%) Nattokinase [%]
1,O=C(O)CN(CCN(CC(=O)O)CC(=O)O)CC(=O)O [EDTA],117

# Same assay, conditions: concentration 5 mM; 100% represents 19 FU/mL
row,Compound,Relative activity (%) Nattokinase [%]
1,[Al+3] [Al^3+],101
2,[Cu+2] [Cu^2+],95
3,"O=S(=O)(F)Cc1ccccc1 [PMSF, phenylmethanesulfonyl fluoride]",45
4,[Mg+2] [Mg^2+],104
5,[Ba+2] [Ba^2+],109
6,[Mn+2] [Mn^2+],102
7,[Zn+2] [Zn^2+],94
8,[Ca+2] [Ca^2+],108
9,[Fe+2] [Fe^2+],232

# Same assay, conditions: concentration 10 mM; 100% represents 19 FU/mL
row,Compound,Relative activity (%) Nattokinase [%]
1,"O=S(=O)(F)Cc1ccccc1 [PMSF, phenylmethanesulfonyl fluoride]",0
2,[Fe+2] [Fe^2+],156

# Same assay, conditions: metal ion or inhibitor added
row,Compound,Effect on TKU015 nattokinase activity
1,[Cu+2] [Cu^2+],does not
2,"O=S(=O)(F)Cc1ccccc1 [PMSF, phenylmethanesulfonyl fluoride]",completely inhibited
3,[Mg+2] [Mg^2+],does not
4,[Ca+2] [Ca^2+],does not
5,[Fe+2] [Fe^2+],improve activity; also recorded: increase its activity

# Test system: nattokinase
# Test: not given
# Details: ion added; cited from earlier work
row,Compound,Effect of metal ion on nattokinase activity
1,[Cu+2] [Cu^2+],increased activity
2,[Mg+2] [Mg^2+],increased activity
3,[Ca+2] [Ca^2+],increased activity

# Test system: TKU015 nattokinase
# Test: Influence of surfactants on TKU015 nattokinase activity
# Type: biochemical, Pseudomonas sp. TKU015
# Details: concentration 0.5, 1, or 2 mM (one value in text)
row,Compound,TKU015 nattokinase remaining activity [%]
1,CCCCCCCCCCCCOS(=O)(=O)[O-].[Na+] [SDS],50

# Same assay, conditions: surfactant 0.5 mM; 100% represents 18 FU/mL
row,Compound,Relative activity (%) Nattokinase [%]
1,CCCCCCCCCCCCOS(=O)(=O)[O-].[Na+] [SDS],66

# Same assay, conditions: surfactant 1 mM; 100% represents 18 FU/mL
row,Compound,Relative activity (%) Nattokinase [%]
1,CCCCCCCCCCCCOS(=O)(=O)[O-].[Na+] [SDS],56

# Same assay, conditions: surfactant 2 mM; 100% represents 18 FU/mL
row,Compound,Relative activity (%) Nattokinase [%]
1,CCCCCCCCCCCCOS(=O)(=O)[O-].[Na+] [SDS],56

# Same assay, conditions: surfactant 0.5 % (v/v); 100% represents 18 FU/mL
row,Compound,Relative activity (%) Nattokinase [%]
1,Triton X-100,160
2,Tween 40,94

# Same assay, conditions: surfactant 1 % (v/v); 100% represents 18 FU/mL
row,Compound,Relative activity (%) Nattokinase [%]
1,Triton X-100,206
2,Tween 40,70

# Same assay, conditions: surfactant 2 % (v/v); 100% represents 18 FU/mL
row,Compound,Relative activity (%) Nattokinase [%]
1,Triton X-100,344
2,Tween 40,82

# Test system: TKU015 nattokinase
# Test: Influence of organic solvents on activity of TKU015 nattokinase
# Type: biochemical, Pseudomonas sp. TKU015
# Details: in the presence of organic solvent
# Description: Protease activity of the supernatant obtained from culture medium of chitinase (cultured in a liquid shaking culture medium (pH 8) including 0.5% by weight of SSP, 0.1% by weight of K2HPO4 and 0.05% by weight of MgSO4.7H2O for 3 days at 30° C.) is respectively tested using casein and N-succinyl-Ala-Ala-Pro-Phe-pNa as substrate.
# as §1
Compound,Effect of organic solvent on TKU015 nattokinase activity,Inhibition of TKU015 nattokinase activity [%]
CO [methanol],do not affect,–
CCOCC [ethyl ether],–,50
xylene,do not affect,–
Cc1ccccc1 [toluene],do not affect,–

# Same assay, conditions: in the presence of organic solvent; 100% represents 20 FU/mL
row,Compound,Relative activity(%) TKU015 nattokinase
1,CC(C)CCO [isoamylalcohol],60%
2,CC(C)O [isopropylalcohol],68%
3,butanol,70%
4,CO [methanol],96%
5,CC#N [acetonitrile],88%
6,CCOCC [ethyl ether],43%
7,xylene,96%
8,CC(C)=O [acetone],150%
9,C[S+](C)[O-] [DMSO],80%
10,Cc1ccccc1 [toluene],106%
11,CCOC(C)=O [ethyl acetate],70%
12,CCO [ethanol],65%
13,"CN(C)C=O [DMF, N,N-dimethylformamide]",80% and 64%
14,CCCCCC [hexane],66%
